Measurements reported in patent US8535650B2, “Stabilized reverse micelle compositions and uses thereof” (Soligenix, Inc., priority 2001, dated 2013).
Values belong to the molecule of their own block, whether it stands above or below them.

Tests used:
in vivo [1] = details: Sprague-Dawley, rat, sc, 0.4 mg/kg
Method: Sprague-Dawley rats (approximately weighing 120 grams each) were catheterized surgically with jugular and duodenal catheters. Each group of rats, 3-5 animals per group, were given 0.4-2.4 mg/kg of LHRH either as free in solution or incorporated in micelles. As further control, several groups of animals were given a solution of free LHRH subcutaneously at a dose of 0.4 mg/kg of body weight. Blood samples were collected at 0, 20, 40, 60, 90, 120, and 240 minutes following administration of LHRH or controls. The time 0 blood collection was obtained approximately 15 minutes before administration of LHRH formulations. Plasma samples were analyzed by a competitive ELISA assay as follows. Plastic 96 well plates were coated with anti-rabbit immunoglobulins followed by addition of rabbit anti-LHRH and biotinylated-LHRH with sample dilutions. Binding of biotinylated LHRH was assayed by development with BRP-avidin and color development with TMB (tetra-methyl-benzidine). Pharmacokinetic parameters were calculated from the data using WinNonLin software (Pharsight).

in vivo [2] = details: Sprague-Dawley, rat
Method: Sprague-Dawley rats (approximately weighing 120 grams each) were catheterized surgically with jugular and duodenal catheters. Each group of rats, 4-5 animals per group, were given 0.4-3.6 mg/kg of leuprolide either as free in solution or incorporated in micelles. As further control, several groups of animals were given a solution of free leuprolide subcutaneously. Blood samples were collected at 0, 20, 40, 60, 90, 120, and 240 minutes following administration of leuprolide or controls. The time 0 blood collection was obtained approximately 15 minutes before administration of leuprolide formulations. The amount of leuprolide released into rat serum or leuprolide in formulation was determined by using competitive enzyme-linked immunosorbent assay (ELISA) (Peninsula Laboratories, Inc). The assay system utilizes goat anti-rabbit IgG for solid phase (microwells) immobilization. The test serum or formulation sample was allowed to react simultaneously with the coated antibody, rabbit anti-leuprolide and biotinylated leuprolide. The biotinylated leuprolide competes for the antibody binding sites with standard or the unknown sample leuprolide. After a two-hour (or overnight) incubation at room temperature, unbound biotinylated peptide was removed by washing, and streptavidin-conjugated horseradish peroxidase (SA-HRP) was added and allowed to bind the immobilized rabbit anti-leuprolide/biotinylated leuprolide complex. After washing away excess SA-HRP, 3,3′,5,5′-Tetramethylbenzidine (TMB) was added and incubated for 15 minutes, resulting in the development of a blue color. The addition of Stop Solution stops the reaction and converts the color to yellow. The intensity of the yellow color depends on the quantity of biotinylated leuprolide bound to the immobilized antibody: When more sample leuprolide competes for the limited antibody, less biotinylated leuprolide/SA-HRP can be immobilized, and less color is produced by the substrate.

in vivo [3] = details: both, beagle, dog, sc, 0.4 mg/kg
Method: Beagle dogs (3 female and 3 male weighing 8-10 kg each) were catheterized surgically with duodenal catheters. For each treatment, the dogs were given 0.4-2.4 mg/kg of leuprolide either in solution or incorporated in micelles. The treatments were administered via the duodenal catheter. For the positive control, the dogs were given a solution of free leuprolide by subcutaneous injection. Blood samples were collected from cephalic catheters or the jugular vein at 0, 15, 30, 45, 60, 90, 120, 240, 360, 480, and 1440 minutes following administration of leuprolide or controls. […] The time 0 blood collection was obtained approximately 10 minutes before administration of leuprolide formulations. The amount of leuprolide released into dog serum was determined by using a competitive enzyme-linked immunosorbent assay (ELISA) from Peninsula Laboratories, Inc. which utilizes goat anti-rabbit IgG for solid phase (microwell) immobilization. The test serum was allowed to react simultaneously with the coated antibody, rabbit anti-leuprolide and biotinylated leuprolide. After two-hour incubation at room temperature, unbound biotinylated peptide was removed by washing, and streptavidin-conjugated horseradish peroxidase (SA-HRP) was added and allowed to bind the immobilized rabbit anti-leuprolide/biotinylated leuprolide complex. After washing away excess SA-HRP, 3,3′5,5′-Tetramethylbenzidine dihydrochloride (B) was added and incubated for 15 minutes, resulting in the development of a blue color. The addition of stop solution stops the reaction and converts the color to yellow. Leuprolide in the samples was quantified by non-linear regression analysis of the standard curve and sample optical density values. Pharmacokinetic parameters are calculated using a pharmacokinetic software with a noncompartmental model.

[4] = Bioavailability of hGH following intraduodenal administration in rats (plasma hGH by ELISA); assay type: in vivo, Sprague-Dawley rats; details: 600 micrograms hGH, FIG. 1
Text: Each group of rats, 3-5 animals per group, received 600 micrograms of human growth hormone in Acconon CC-12 reverse micelle formulation or control formulations consisting of aqueous growth hormone or Acconon CC-12 water reverse micelle. Blood samples were obtained from the jugular catheter at the indicated times after administration. Plasma samples were obtained from the collected blood specimens and analyzed for the presence of hGH by an enzyme-linked immunosorbent assay (ELISA) (Alexon-Trend, BioCheck). The assay system utilizes polyclonal sheep anti-hGH for solid phase (microwells) immobilization, and mouse monoclonal anti-hGH in the antibody-enzyme (horseradish peroxidase) conjugate solution. […] After a 45-minute incubation at room temperature, the sample well was washed to remove unbound enzyme labeled antibody. […] The intensity of the yellow color is directly proportional to the concentration of hGH in the sample.

- AUC(0-inf) (in vivo [1]): 31.5 ng·h/mL
- Cmax (in vivo [1]): 79 ± 51.2 ng/mL
- bioavailability (in vivo [1]): 100%
Molecule: CC(C)C[C@H](NC(=O)CNC(=O)[C@H](Cc1ccc(O)cc1)NC(=O)[C@H](CO)NC(=O)[C@H](Cc1c[nH]c2ccccc12)NC(=O)[C@H](Cc1cnc[nH]1)NC(=O)[C@@H]1CCC(=O)N1)C(=O)N[C@@H](CCCNC(=N)N)C(=O)N1CCC[C@H]1C(=O)NCC(N)=O [LHRH solution]

- bioavailability (in vivo [2]): ~0.2%
- AUC(0-inf) (in vivo [2]; 2.4 mg/kg): 5.43 ng·h/mL
- Cmax (in vivo [2]; 2.4 mg/kg): 6.3 ± 5.3 ng/mL
- bioavailability (in vivo [2]; 2.4 mg/kg): 0.23 ± 0.12%
- AUC(0-inf) (in vivo [2]; sc, 0.4 mg/kg): 397 ng·h/mL
- Cmax (in vivo [2]; sc, 0.4 mg/kg): 453 ± 94 ng/mL
- bioavailability (in vivo [2]; sc, 0.4 mg/kg): 100%
- AUC(0-inf) (in vivo [3]): 905 ng·h/mL
- Cmax (in vivo [3]): 412 ± 163 ng/mL
- bioavailability (in vivo [3]): 100%
Molecule: CCNC(=O)[C@@H]1CCCN1C(=O)[C@H](CCCNC(=N)N)NC(=O)[C@H](CC(C)C)NC(=O)[C@@H](CC(C)C)NC(=O)[C@H](Cc1ccc(O)cc1)NC(=O)[C@H](CO)NC(=O)[C@H](Cc1c[nH]c2ccccc12)NC(=O)[C@H](Cc1c[nH]cn1)NC(=O)[C@@H]1CCC(=O)N1 [Leuprolide solution, p-Glu-His-Trp-Ser-Tyr-D-Leu-Leu-Arg-Pro-NHC2H5]

Molecule: aqueous growth hormone: purified human growth hormone dissolved in water, control formulation
- absorption of hGH [4]: little to no absorption
